Laboratory results as given in the NIST ThermoML archive (doi:10.1016/j.fluid.2009.09.024).

How the values were obtained:
[1] = xn = mol fraction of the nth substance listed; details: Liquid, Vibrating tube method
[2] = for mass density: Vibrating tube method; for vapor or sublimation pressure: Closed cell (Static) method

Cc1ccccc1 [toluene] + Cc1ccccc1C
[1], x1 = 1
Details	mass density [kg/m3]
333.15 K	830.467
353.15 K	810.89

CCCCCCCCC [nonane]
[2]
Details	mass density, 333.15 K [kg/m3]	mass density, 353.15 K [kg/m3]	vapor or sublimation pressure, 333.15 K [kPa]	vapor or sublimation pressure, 353.15 K [kPa]
Gas	0.1868	0.4513	–	–
Liquid	685.961	669.919	3.97	10.28

Cc1ccccc1C [1,2-dimethylbenzene] + O=S1(=O)CCCC1
[1], x1 = 1
Details	mass density [kg/m3]
333.15 K	845.839
353.15 K	828.528

O=S1(=O)CCCC1 [sulfolane] + Cc1cccc(C)c1
mass density [kg/m3], [1]
Details	333.15 K	353.15 K
x2 = 0	1231.12	1214.39
x2 = 0.01	1227.11	–
x2 = 0.015	1225.1	1208.34
x2 = 0.02	1223.09	1206.33
x2 = 0.03	1219.07	1202.3
x2 = 0.05	–	1194.25
x2 = 0.1	1190.81	1173.97
x2 = 0.199	1150.86	1133.93
x2 = 0.299	1110.94	1093.91
x2 = 0.399	1070.45	1053.33
x2 = 0.501	1029.46	1012.24
x2 = 0.6	989.939	972.621
x2 = 0.7	949.485	932.07
x2 = 0.799	909.766	892.257
x2 = 0.9	869.443	851.836

Cc1cccc(C)c1 [1,3-dimethylbenzene]
[2]
Details	mass density, 333.15 K [kg/m3]	mass density, 353.15 K [kg/m3]	vapor or sublimation pressure, 333.15 K [kPa]	vapor or sublimation pressure, 353.15 K [kPa]
Gas	0.252	0.5448	–	–
Liquid	829.305	811.602	6.59	15.09

CCCCCCCCC [nonane] + c1ccccc1
mass density [kg/m3], [1]
Details	333.15 K	353.15 K
x2 = 0	685.961	669.919
x2 = 0.1	700.985	–
x2 = 0.101	–	684.481
x2 = 0.199	–	698.728
x2 = 0.2	715.957	–
x2 = 0.248	–	705.756
x2 = 0.3	–	713.217
x2 = 0.302	731.175	–
x2 = 0.399	–	727.581
x2 = 0.404	746.508	–
x2 = 0.499	–	741.992
x2 = 0.502	761.194	–
x2 = 0.599	775.788	756.286
x2 = 0.699	790.766	–
x2 = 0.701	–	771.023
x2 = 0.799	805.683	785.21
x2 = 0.899	820.654	799.582
x2 = 0.94	826.713	–
x2 = 0.969	831.191	–
